According to PubChem BioAssay AID1324 (NMMLSC, 2008):
Activity calls are given as the source filed them. How the calls were made is not given here.

Target: glutathione S-transferase (GST-GSH binding)
Experiment: GST–glutathione interaction disruption – biochemical, multiplex beads, flow cytometry, HPSMTB buffer, profiling panel (AID 1324);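 further: glutathione beads loaded with GST-green fluorescent protein and no fluorescent Bim peptide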
Settings: multiplex bead flow cytometry, MCF; for percent span inhibition: active compounds read high, concentration not given here

SMILES | percent span inhibition | EC50
N#CC(C#N)=C1C=CC=CN1/C(=C\c1ccco1)C(=O)c1ccccc1 | inactive | –
Cc1ccc(-n2nc(C)c(C(=O)O)n2)c(C)c1 | inactive | –
COc1ccc2cc(CN(CCc3ccccc3)Cc3nnnn3CC3CCCO3)c(=O)[nH]c2c1 (stereo not drawn) | inactive | –
Cc1cccc(-n2c(O)c(/C=N/N3CCOCC3)c(=O)[nH]c2=S)c1 | inactive | –
O=C(COC(=O)c1ccccn1)NC1CCCCC1 | inactive | –
CCc1cccc(NC(=O)COc2ccccc2)c1 | inactive | –
C(=C\c1ccccc1)/CSc1nnc(-c2ccccn2)n1Cc1ccco1 | inactive | –
COc1ccc(N2C(=O)C(Cl)=C(Nc3c(C)n(C)n(-c4ccccc4)c3=O)C2=O)cc1 | inactive | –
COC(=O)CSc1ncnc2c1sc1nc(-c3ccco3)c3c(c12)CC(C)(C)OC3 | inactive | –
COc1ccc(CC(=O)Nc2ccc(-c3nc4cc(C)ccc4o3)c(O)c2)cc1OC | inactive | –
Cc1ccc2c(c1)c(C)c(C)n2CC(O)Cn1nc(C)c(Br)c1C (stereo not drawn) | inactive | –
C=CS(=O)c1sc(Cl)c(N2CCOCC2)c1[N+](=O)[O-] (stereo not drawn) | inactive | –
N=C1C(c2nc3ccccc3s2)=C(O)CN1Cc1ccccc1 | inactive | –
Cc1ccc(-c2nc(N3CCOCC3)s[n+]2-c2ccccc2)cc1 | inactive | –
Cc1cc(/C=C(/C#N)C(=O)Nc2ccc(Cl)cc2)c(C)n1-c1cccnc1 | inactive | –
Cc1ccc(SCCC(=O)Nc2ccc(Br)c(C)c2)cc1 | inactive | –
CCn1c(C)c(/C=N/Nc2nc3ccccc3s2)c2ccccc21 | inactive | –
O=C(Nc1cccc(C(F)(F)F)c1)c1ccc2nc(-c3ccco3)c(-c3ccco3)nc2c1 | inactive | –
N/C(=N\OC(=O)CCC1CCCC1)c1ccncc1 | inactive | –
Cc1ccc(-n2[nH]c(C)c(/C=N/Nc3ccc([N+](=O)[O-])cc3[N+](=O)[O-])c2=O)cc1C | inactive | –
O=[N+]([O-])c1ccc(-c2cn(-c3ccc(Cl)cc3)c(=S)[nH]2)cc1 | inactive | –
Cn1c(N)c(C(=O)COC(=O)c2cc(-c3ccco3)nc3ccccc23)c(=O)n(C)c1=O | inactive | –
Cc1ccc(-c2nnc(Cc3ccc(Cl)cc3)o2)cc1 | inactive | –
O=C(Nc1ccc(Cl)cn1)Nc1ccccc1F | inactive | –
COc1ccc(OC)c(-n2c(=O)c3ccccc3c3ccccc3c2=O)c1 | – | inactive

SMILES | percent span inhibition | EC50
CCOC(=O)c1nc(Nc2ccc(C(=O)OC)cc2)c2ccccc2n1 | inactive | –
COc1cc(NC(=O)c2ccc3c(c2)OCO3)ccc1NC(=O)c1ccco1 | inactive | –
C/C(=N\NC(=O)Cn1nc(C)c([N+](=O)[O-])c1C)c1ccc(O)cc1 | inactive | –
Cc1sc(NC(=O)Cn2cnnn2)nc1-c1ccc(Cl)cc1 | inactive | –
O=C(Nc1n[nH]c(C(F)(F)F)n1)C1CC1 | inactive | –
Cc1cccc(C(=O)N=c2c(C#N)cc3c(=O)n4cccc(C)c4nc3n2Cc2ccco2)c1 | inactive | –
CCN1CCN(c2ccc(NC(=O)c3ccc4c(c3)[nH]c(=O)n4Cc3ccc(OC)cc3)cc2)CC1 | inactive | –
CCN1/C(=C\c2ccc3cc(C)ccc3[n+]2CC)Sc2cc(C)c(C)cc21 | inactive | –
c1csc(C2=Nn3c(nnc3-c3ccncc3)SC2)c1 | inactive | –
COCCNc1nc(=S)[nH]c2cc(OC)c(OC)cc12 | inactive | –
CCSc1nnc(NC(=O)c2c(-c3ccccc3Cl)noc2C)s1 | inactive | –
CCOc1ccc(NCc2ccccc2OCc2cccc(F)c2)cc1 | inactive | –
COC(=O)Cc1ccc(NC(=S)N2CCN(c3cccc(O)c3)CC2)cc1 | inactive | –
CCOC(=O)c1snc(-c2ccc(F)cc2)c1N | inactive | –
CC(=O)OCCNc1cc(Sc2nc3ccccc3[nH]2)c2nonc2c1[N+](=O)[O-] | inactive | –
Nc1ccc(C2=Nc3cccc4cccc(c34)N2)cc1 | inactive | –
Cc1ccc(NN2C(=O)C=CC2=O)cc1 | inactive | –
CC(C)CNC(=O)c1cccc(NC(=O)c2ccc(Cl)c([N+](=O)[O-])c2)c1 | inactive | –
CNc1ccc(Br)cc(C(=O)/C=C/c2cccc(OC)c2OC)c1=O | inactive | –
COc1ccc(-c2nnc(SCC(=O)Nc3nc4ccccc4s3)n2C)cc1 | inactive | –
COc1ccc(Cc2c(O)nc(SC)n(C(C)=O)c2=O)cc1 | inactive | –
Cc1ccccc1-c1nc(-c2ccc(NC(=O)c3ccc4c(c3)OCO4)cc2)no1 | inactive | –
O=C1CCc2cc(S(=O)(=O)NCCCC(=O)N3CCN(Cc4ccc5c(c4)OCO5)CC3)ccc2N1 | inactive | –
COc1ccc2nc(-c3ccco3)c(-c3ccco3)nc2c1 | – | inactive
Cc1[nH]n(C(N)=S)c(=O)c1N=Nc1ccc(S(=O)(=O)N2CCCCCC2)cc1 | inactive | –

SMILES | percent span inhibition | EC50
O=C1/C(=C/c2cccs2)Sc2ccccc21 | inactive | –
COc1ccc(C)cc1Nc1ccc(C(=O)O)cc1[N+](=O)[O-] | inactive | –
C=CCn1c(SCC(=O)Nc2ccc3c(c2)OCO3)nnc1-c1cc(Br)ccc1O | inactive | –
CCC(=O)N(CC)C1=C(O)c2ccccc2C(=O)C1=O | inactive | –
Cc1cccc(N2CCN(C(=S)Nc3ccc4nc(N5CCN(C)CC5)cc(C)c4c3)CC2)c1C | inactive | –
CCOCCOc1nc2c(c(=O)n(C)c(=O)n2C)n1CCc1ccccc1 | inactive | –
NC(=O)c1c(NC(=O)C2CCCO2)sc2c1CCCCC2 (stereo not drawn) | inactive | –
Clc1nc(NCc2cccnc2)nc(N2CCOCC2)n1 | inactive | –
Cc1cc(C)c(S(=O)(=O)/N=C2/C=C(SCC(=O)O)C(=O)c3ccccc32)cc1C | inactive | –
CCN1CCN(CC(=O)c2c[nH]c3ccc(C)cc23)CC1 | inactive | –
COc1ccc(C2(NC(C)=O)CCN(C(=O)c3ccco3)CC2)cc1 | inactive | –
Cc1ccc(-c2cc(-c3ccccc3Cl)c(C#N)c(N)n2)o1 | inactive | –
CC(C)c1ccc(/C=N/NC(=O)c2ccccc2Cl)cc1 | inactive | –
CN(C)/C=C/C(=O)c1ccc(C(F)(F)F)cc1F | inactive | –
CCCCNc1nc(=S)[nH]c2cc(OC)c(OC)cc12 | – | inactive
CCCOc1ccc(-c2c(C(=O)N/N=C/c3ccc(OC)cc3)nnn2-c2nonc2N)cc1 | inactive | –
Cc1nc2cc(F)ccc2n1C1CCN(C(=O)c2c(F)cccc2F)CC1 | inactive | –
COc1cc(N2CCOCC2)ccc1C=C1C(=O)NC(=O)NC1=O | inactive | –
O=C(O)CC1S/C(=N/N=C/C=C/c2ccccc2[N+](=O)[O-])NC1=O (stereo not drawn) | inactive | –
O=C1C(Cl)=C(Nc2ccccc2O)C(=O)N1c1ccccc1 | inactive | –
O=C(N/N=C/c1cccnc1)c1cccc(S(=O)(=O)N2CCCC2)c1 | inactive | –
COc1ccc(C(=O)/C=C/c2cc(OC)c(O)c(OC)c2)c(F)c1 | inactive | –
S=c1[nH]cc(-c2ccccc2)n1-c1ccccc1 | inactive | –
CCOC(=O)N1CCC(c2cc(=O)n(-c3ccccc3)[nH]2)CC1 | inactive | –
COc1ccc(NC(=O)c2sccc2SCc2cccc(C(F)(F)F)c2)cc1 | inactive | –

SMILES | percent span inhibition | EC50
CCOC(=O)C1(Cc2cccc(OC)c2)CCN(Cc2cccc(OC)c2OC)CC1 | inactive | –
COCCN=c1scc(-c2cccs2)n1/N=C/c1ccc(O)c(O)c1O | inactive | –
Cc1ccc(-c2nc3c(c(=O)[nH]c(=O)n3Cc3ccccc3)n2C)o1 | inactive | –
COc1cccc(/C=N/Nc2nn3cnnc3c3ccccc23)c1 | – | 7.28 µM
CS(=O)(=O)NN1C(=O)c2ccccc2NC1c1ccccc1 (stereo not drawn) | inactive | –
c1ccc(-c2nnc(OCCN3CCOCC3)c3ccccc23)cc1 | inactive | –
COc1cc(C=Nc2cccc(C)c2)c(O)c([N+](=O)[O-])c1 | inactive | –
CCOc1cc(S(=O)(=O)Nc2ccccn2)ccc1F | inactive | –
COc1ccc(-n2c(SCC(=O)Nc3ccc(C(=O)O)cc3)nnc2-c2cccs2)cc1 | inactive | –
O=c1c2c(n3nnnc3n1Cc1ccccc1)-c1ccccc1CC21CCCC1 | inactive | –
COc1ccc(NC(=O)c2c(F)cccc2F)cc1S(=O)(=O)Nc1ccc(Br)cc1 | inactive | –
Cc1ccc(C)c(N2CCN(C(=S)Nc3ccc4nc(N5CCN(C)CC5)cc(C)c4c3)CC2)c1 | inactive | –
COc1ccccc1NC1=C(NC(C)=O)C(=O)c2ccccc2C1=O | inactive | –
COc1cc(/C=N/NC(=O)c2ccc([N+](=O)[O-])cc2Cl)cc(Br)c1O | inactive | –
COc1ccc(S(=O)(=O)NCCSc2ccccc2)cc1OC | inactive | –
Cc1ccc(C)c(Oc2ncnc(N)c2[N+](=O)[O-])c1 | inactive | –
COc1cc(/C=C2\S/C(=N/S(=O)(=O)c3ccccc3)NC2=O)c([N+](=O)[O-])cc1OC | inactive | –
Fc1ccc(/C=C2\CCCC3=C2NC(=S)NC3c2ccc(F)cc2)cc1 (stereo not drawn) | inactive | –
Cc1c(NC2=C(Cl)C(=O)N(c3ccccc3)C2=O)c(=O)n(-c2ccccc2)n1C | inactive | –
Cn1c(N)c(C(=O)COC(=O)c2cncc(Br)c2)c(=O)n(C)c1=O | inactive | –
COc1ccc(COC(=O)NNC(=O)c2ccccc2Cl)cc1 | inactive | –
C=CCN1C(=O)/C(=C/c2ccsc2)SC1=S | inactive | –
Cc1ccc(-c2cc(C(=O)Nc3ccccc3C)c3ccccc3n2)o1 | inactive | –
